In this test the target is T1, IKBKB (IKK beta) (Homo sapiens, UniProt O14920).
T1 construct: purchased Thermo Fisher Scientific (Life Technologies) SelectScreen
The test can be described thus: SelectScreen Z'LYTE. The format is biochemical. An outline of the steps:
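NU5455 was profiled across the SelectScreen Broad panel of kinase activity and binding assays. Z'LYTE reactions such as CSF1R ran at apparent Km ATP, while the Adapta CAMK1 assay used ATP listed as 10. Values are given as percent.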

The structures appear in SMILES notation.

The inhibition is the relative decrease from the control value, in per cent.

T1 sequence (O14920 whole entry): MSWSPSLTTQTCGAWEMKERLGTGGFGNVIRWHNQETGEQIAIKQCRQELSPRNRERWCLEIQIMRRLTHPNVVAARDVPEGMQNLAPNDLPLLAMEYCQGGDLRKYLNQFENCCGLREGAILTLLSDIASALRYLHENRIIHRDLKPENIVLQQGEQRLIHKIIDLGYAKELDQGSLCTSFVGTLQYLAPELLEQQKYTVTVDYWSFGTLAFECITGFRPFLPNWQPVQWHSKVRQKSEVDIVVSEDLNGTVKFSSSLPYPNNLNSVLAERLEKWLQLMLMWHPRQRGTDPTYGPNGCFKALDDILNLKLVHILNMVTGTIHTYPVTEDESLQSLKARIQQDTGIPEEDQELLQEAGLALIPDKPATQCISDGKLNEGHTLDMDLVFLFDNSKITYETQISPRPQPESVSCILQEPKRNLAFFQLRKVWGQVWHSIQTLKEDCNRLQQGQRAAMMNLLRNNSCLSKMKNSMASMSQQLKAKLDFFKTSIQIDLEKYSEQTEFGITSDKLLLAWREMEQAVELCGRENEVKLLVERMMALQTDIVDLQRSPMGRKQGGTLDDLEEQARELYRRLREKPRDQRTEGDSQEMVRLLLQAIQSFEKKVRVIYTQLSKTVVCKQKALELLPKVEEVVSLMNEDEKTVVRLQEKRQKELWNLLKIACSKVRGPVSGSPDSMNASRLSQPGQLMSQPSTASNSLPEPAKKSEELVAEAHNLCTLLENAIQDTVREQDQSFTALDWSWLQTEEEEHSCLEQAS

Take `CN(C(=O)CN1CCOCC1)c1ccc2sc3c(-c4cccc5c(=O)cc(N6CC7CCC(C6)O7)oc45)cccc3c2c1` [NU5455]: the inhibition at 1 µM was -0.6%.

Source of the values: publication PMC6934184, “Selective DNA-PKcs inhibition extends the therapeutic index of localized radiotherapy and chemotherapy” (The Journal of Clinical Investigation, 2019).
